The values below come from US20210038545A1 (priority 2018, published 2021).

The experiment deals with S. pneumoniae. The conditions noted are these: mice colonized with IAV (H1N1, 7 dpi) microbiota; acetate five days before 1×10^6 CFUs; vs vehicle-treated transplanted animals; FIG. 4A.

As to `CC(=O)O` [acetate], the “resistance to S. pneumoniae challenge” value was “more resistant”.
